{
  "source": "the Kinase Knowledgebase extract (Sharma et al. 2016)",
  "data": [
    {"target": "CDK2 (human) (UniProt P24941)", "test": "Enzyme Assay", "units": {"IC50": "nM"}, "values": [
      {"compound": "CN1CC=C(c2cccc(NC(=O)Nc3csc(-c4ccncc4)n3)n2)CC1", "IC50": "< 500"},
      {"compound": "O=C(Nc1cccc(OCCC2CCNCC2)n1)Nc1csc(-c2ccccc2)n1", "IC50": "< 500"},
      {"compound": "CN1CCC[C@H]1COc1cccc(NC(=O)Nc2csc(CS(=O)(=O)c3cccs3)n2)n1", "IC50": "< 500"},
      {"compound": "C[C@H]1CCCN(Cc2cccc(NC(=O)Nc3csc(-c4ccncc4)n3)n2)C1", "IC50": "< 500"},
      {"compound": "CN1CCC(COc2cccc(NC(=O)Nc3csc(-c4ccncc4)n3)n2)CC1", "IC50": "< 500"},
      {"compound": "CC(C)(C)OC(=O)N1CCC(COc2cccc(NC(=O)Nc3csc(-c4ccncc4)n3)n2)C1", "note": "(centres undefined)", "IC50": "< 500"},
      {"compound": "CN1CC=C(c2cccc(NC(=O)Nc3csc(Br)n3)n2)CC1", "IC50": "< 500"},
      {"compound": "CC(c1cccc(NC(=O)Nc2csc(-c3ccncc3)n2)n1)N1CCCCC1", "note": "(centres undefined)", "IC50": "< 500"},
      {"compound": "CCN(CC)C(=O)c1ccnc(NC(=O)Nc2csc(-c3ccncc3)n2)c1", "IC50": "< 500"},
      {"compound": "CN1CC(COc2cccc(NC(=O)Nc3csc(-c4ccncc4)n3)n2)C1", "IC50": "< 500"},
      {"compound": "Cc1cc(C(=O)N2CCC(COc3cccc(NC(=O)Nc4csc(-c5ccncc5)n4)n3)C2)n(C(C)(C)C)n1", "note": "(centres undefined)", "IC50": "< 500"},
      {"compound": "O=C(Nc1cccc(N2CCN(c3ncccn3)CC2)n1)Nc1csc(-c2ccccc2)n1", "IC50": "< 500"},
      {"compound": "CC(C)NCc1cccc(NC(=O)Nc2csc(Cl)n2)n1", "IC50": "< 500"},
      {"compound": "O=C(Nc1cc(C(=O)N2CCCCC2)ccn1)Nc1csc(-c2ccncc2)n1", "IC50": "< 500"},
      {"compound": "CN1CCC(COc2cccc(NC(=O)Nc3csc(-c4ccccc4)n3)n2)CC1", "IC50": "< 500"},
      {"compound": "O=C(Nc1cccc(OCC2CCNC2)n1)Nc1csc(-c2ccncc2)n1", "note": "(centres undefined)", "IC50": "< 500"},
      {"compound": "O=C(Nc1cccc(NCCCO)n1)Nc1csc(-c2ccncc2)n1", "IC50": "< 500"},
      {"compound": "O=C(Nc1cc(CN2CCCCC2)ccn1)Nc1csc(-c2ccccc2)n1", "IC50": "< 500"},
      {"compound": "O=C(Nc1cccc(CN2CCCCC2)n1)Nc1csc(Cl)n1", "IC50": "< 500"},
      {"compound": "CN1CC(COc2cccc(NC(=O)Nc3csc(-c4ccccc4)n3)n2)C1", "IC50": "< 500"},
      {"compound": "CC(C)(C)OC(=O)N1CCC(COc2cccc(NC(=O)Nc3csc(-c4ccncc4)n3)n2)CC1", "IC50": "< 500"},
      {"compound": "O=C(Nc1cc(C(=O)N2CCCCC2)ccn1)Nc1csc(Br)n1", "IC50": "< 500"},
      {"compound": "CN1CCC[C@@H]1COc1cccc(NC(=O)Nc2csc(-c3ccncc3)n2)n1", "IC50": "< 500"},
      {"compound": "O=C(Nc1cccc(OCCC2CCNCC2)n1)Nc1csc(-c2cccs2)n1", "IC50": "< 500"},
      {"compound": "CN1CC=C(c2cccc(NC(=O)Nc3csc(-c4ccccc4)n3)n2)CC1", "IC50": "< 500"},
      {"compound": "CN1CCC[C@H]1COc1cccc(NC(=O)Nc2csc(-c3cccc(S(N)(=O)=O)c3)n2)n1", "IC50": "< 500"},
      {"compound": "O=C(Nc1cccc(OCC2CNC2)n1)Nc1csc(Cl)n1", "IC50": "< 500"},
      {"compound": "O=C(Nc1csc(-c2ccncc2)n1)Nc1ncccn1", "IC50": "< 500"},
      {"compound": "O=C(Nc1cccc(OCC2CCOC2)n1)Nc1csc(-c2ccncc2)n1", "note": "(centres undefined)", "IC50": "< 500"},
      {"compound": "Cn1cccc1C(=O)N1CCC(COc2cccc(NC(=O)Nc3csc(-c4ccncc4)n3)n2)C1", "note": "(centres undefined)", "IC50": "< 500"},
      {"compound": "CC1CCCC(C)N1Cc1cccc(NC(=O)Nc2csc(-c3ccncc3)n2)n1", "note": "(centres undefined)", "IC50": "< 500"},
      {"compound": "O=C(Nc1cccc(OCC2CCNCC2)n1)Nc1csc(Cl)n1", "IC50": "< 500"},
      {"compound": "O=C(Nc1cccc(C2=CCNCC2)n1)Nc1csc(-c2ccncc2)n1", "IC50": "< 500"},
      {"compound": "O=C(Nc1cccc(NCCCO)n1)Nc1csc(Br)n1", "IC50": "< 500"},
      {"compound": "CCN(CC)C(=O)c1cccc(NC(=O)Nc2csc(-c3ccccc3)n2)n1", "IC50": "< 500"},
      {"compound": "CC(C)(C)OC(=O)N1CC=C(c2cccc(NC(=O)Nc3csc(-c4ccncc4)n3)n2)CC1", "IC50": "< 500"},
      {"compound": "O=C(Nc1cccc(OCCC2CCNCC2)n1)Nc1csc(Cl)n1", "IC50": "< 500"},
      {"compound": "O=C(Nc1cccc(OCC2CCNCC2)n1)Nc1csc(Br)n1", "IC50": "< 500"},
      {"compound": "CC(C)N(Cc1cccc(NC(=O)Nc2csc(Cl)n2)n1)C(=O)OC(C)(C)C", "IC50": "< 500"},
      {"compound": "O=C(Nc1cccc(OCC2CNC2)n1)Nc1csc(Br)n1", "IC50": "< 500"},
      {"compound": "O=C(Nc1cccc(OCC2CCNCC2)n1)Nc1csc(-c2ccncc2)n1", "IC50": "< 500"},
      {"compound": "CC(C)(C)OC(=O)N1CCCCC1CNc1cccc(NC(=O)Nc2csc(-c3ccncc3)n2)n1", "note": "(centres undefined)", "IC50": "< 500"},
      {"compound": "O=C(Nc1cccc(CN2CCCC2)n1)Nc1csc(-c2ccccc2)n1", "IC50": "< 500"},
      {"compound": "CC(C)NCc1cccc(NC(=O)Nc2csc(-c3ccccc3)n2)n1", "IC50": "< 500"},
      {"compound": "CC1CCCN(Cc2cccc(NC(=O)Nc3csc(Br)n3)n2)C1", "note": "(centres undefined)", "IC50": "< 500"},
      {"compound": "CC1CCCN(Cc2cccc(NC(=O)Nc3csc(-c4ccccc4)n3)n2)C1", "note": "(centres undefined)", "IC50": "< 500"},
      {"compound": "CC(C)(C)OC(=O)N1CCC[C@@H]1COc1cccc(NC(=O)Nc2csc(-c3ccncc3)n2)n1", "IC50": "< 500"},
      {"compound": "O=C(Nc1cc(C(=O)N2CCCCC2)ccn1)Nc1csc(-c2ccccc2)n1", "IC50": "< 500"},
      {"compound": "CCN(CC)Cc1ccnc(NC(=O)Nc2csc(-c3ccncc3)n2)c1", "IC50": "< 500"},
      {"compound": "CN1CCC[C@H]1COc1cccc(NC(=O)Nc2csc(-c3ccccc3)n2)n1", "IC50": "< 500"},
      {"compound": "O=C(Nc1cccc(Oc2ccc(CN3CCCC3)cc2)n1)Nc1csc(-c2ccccc2)n1", "IC50": "< 500"},
      {"compound": "CC(C)(C)c1cnc(-c2nc(NC(=O)Nc3cccc(OCCC4CCNCC4)n3)cs2)o1", "IC50": "< 500"},
      {"compound": "CC(C)N(Cc1cccc(NC(=O)Nc2csc(Br)n2)n1)C(=O)OC(C)(C)C", "IC50": "< 500"},
      {"compound": "CC(C)(C)OC(=O)N1CC(COc2cccc(NC(=O)Nc3csc(-c4ccccc4)n3)n2)C1", "IC50": "< 500"},
      {"compound": "CC(C)NCc1cccc(NC(=O)Nc2csc(-c3ncc(C(C)(C)C)o3)n2)n1", "IC50": "< 500"},
      {"compound": "O=C(Nc1cccc(OCC2CCCO2)n1)Nc1csc(-c2ccncc2)n1", "note": "(centres undefined)", "IC50": "< 500"},
      {"compound": "O=C(Nc1cccc(OCCC2CCNCC2)n1)Nc1csc(C2CC2)n1", "IC50": "< 500"},
      {"compound": "O=C(Nc1cccc(NCC2CCCCN2)n1)Nc1csc(-c2ccncc2)n1", "note": "(centres undefined)", "IC50": "< 500"},
      {"compound": "CN1CCC(c2cccc(NC(=O)Nc3csc(-c4ccccc4)n3)n2)CC1", "IC50": "< 500"},
      {"compound": "O=C(Nc1cccc(OCC2CNC2)n1)Nc1csc(-c2ccccc2)n1", "IC50": "< 500"},
      {"compound": "CN1CCC(c2cccc(NC(=O)Nc3csc(-c4ccncc4)n3)n2)CC1", "IC50": "< 500"},
      {"compound": "COc1cc(-c2nc(NC(=O)Nc3cccc(CN4CCCCC4)n3)cs2)ccn1", "IC50": "< 500"},
      {"compound": "C[C@@H]1CCCN(Cc2cccc(NC(=O)Nc3csc(-c4ccncc4)n3)n2)C1", "IC50": "< 500"},
      {"compound": "O=C(Nc1cccc(OCCC2CCNCC2)n1)Nc1csc(Br)n1", "IC50": "< 500"},
      {"compound": "CCN1CCN(c2cccc(NC(=O)Nc3csc(-c4ccccc4)n3)n2)CC1", "IC50": "< 500"},
      {"compound": "CC1CCCN(Cc2cccc(NC(=O)Nc3csc(Cl)n3)n2)C1", "note": "(centres undefined)", "IC50": "< 500"},
      {"compound": "O=C(Nc1cccc(Oc2ccc(CN3CCCC3)cc2)n1)Nc1csc(Br)n1", "IC50": "< 500"},
      {"compound": "CC(C)(C)OC(=O)N1CCC(CCOc2cccc(NC(=O)Nc3csc(-c4ccccc4)n3)n2)CC1", "IC50": "< 500"},
      {"compound": "O=C(Nc1cccc(OCC2CCNCC2)n1)Nc1csc(-c2ccccc2)n1", "IC50": "< 500"}
    ]}
  ]
}
